Reference: PMC9511441, “Semisynthetic teicoplanin derivatives with dual antimicrobial activity against SARS-CoV-2 and multiresistant bacteria” (Scientific Reports, 2022)
Values after ≈ are worked out from the molar mass of the structure shown. Read-outs that look alike come from different tables or passages of the source.

Assays:
[1] = test system: Escherichia coli ATCC 25218; test: MIC against Gram-negative strain; settings: ATCC25218
[2] = test system: VeroE6 cells; test: Cytotoxicity in mock-infected VeroE6 cells (XTT); assay type: cell-based, African green monkey; settings: mock-infected Vero E6 cells, three days, XTT
[3] = biological target: T1, human recombinant cathepsin L (Homo sapiens, UniProt P07711); test: biochemical; assay type: biochemical
T1 construct: made in house; host or cells: Escherichia coli

[4] = test system: Acinetobacter baumannii ATCC BAA1605; test: MIC against Gram-negative strain; settings: Acinetobacter baumannii, ATCCBAA1605
[5] = test system: HCoV-229E; test: CPE reduction assay, HCoV-229E in HEL cells; assay type: cell-based
[6] = test system: Klebsiella pneumoniae ST258 clone K 160/09; test: MIC against Gram-negative strain; settings: Klebsiella pneumoniae
[7] = test system: E. faecalis; test: MIC, broth microdilution; assay type: cell-based; settings: Enterococcus faecalis
[8] = test system: S. haemolyticus; test: MIC, broth microdilution; assay type: cell-based; settings: Staphylococcus haemolyticus
[9] = test system: S. aureus; test: MIC, broth microdilution; assay type: cell-based; settings: Staphylococcus aureus
[10] = test system: S.pyogenes; test: MIC, broth microdilution; assay type: cell-based; settings: Streptococcus pyogenes
[11] = test system: SARS-CoV-2 pseudovirus; test: microbe, parasite or virus in culture; assay type: cell-based; settings: cathepsin-dependent endosomal pathway
[12] = test system: S. epidermidis; test: microbe, parasite or virus in culture; assay type: cell-based; settings: Staphylococcus epidermidis
[13] = test system: E. faecium; test: microbe, parasite or virus in culture; assay type: cell-based; settings: for MIC: Enterococcus faecium
[14] = test system: S. aureus ATCC29213; test: Fluorescent competition assay, release of fluorescent vancomycin; settings: cells saturated with FL-VAN, Fig. 7 left panel
[15] = test system: HEL cells; test: Cytotoxicity in mock-infected HEL cells (MTS); assay type: cell-based, human; settings: mock-infected HEL cells, MTS, mean of 2–3 tests
[16] = test system: Calu-3 cells; test: Cytotoxicity in mock-infected Calu-3 cells (XTT); settings: read-out: CC50, Calu-3 cells, three days
[17] = test system: S. aureus ATCC29213; test: Fluorescent competition assay, release of fluorescent teicoplanin; assay type: binding; settings: cells saturated with FL-TEI, Fig. 7 right panel
[18] = test system: Pseudomonas aeruginosa ATCC 27853; test: MIC against Gram-negative strain; settings: ATCC27853

T1 sequence (P07711 114-333): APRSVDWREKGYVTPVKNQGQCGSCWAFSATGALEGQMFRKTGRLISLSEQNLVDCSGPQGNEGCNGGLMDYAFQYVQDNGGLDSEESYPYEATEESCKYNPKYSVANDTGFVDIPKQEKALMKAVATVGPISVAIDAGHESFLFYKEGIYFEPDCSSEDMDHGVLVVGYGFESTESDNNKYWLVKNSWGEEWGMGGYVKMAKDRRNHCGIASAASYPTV

CC(=O)N[C@H]1[C@H](O[C@@H]2c3ccc(c(Cl)c3)Oc3cc4cc(c3O)Oc3ccc(cc3Cl)C[C@H]3NC(=O)[C@H](NC(=N)N)c5ccc(O)c(c5)Oc5cc(O)cc(c5)[C@H](NC3=O)C(=O)N[C@H]4C(=O)N[C@H]3C(=O)N[C@@H]2C(=O)N[C@H](C(=O)O)c2cc(O)cc(O)c2-c2cc3ccc2O)O[C@H](CO)[C@@H](O)[C@@H]1O [Compound 6]
MIC [1]: 128 µg/mL (≈ 88.6 µM)
CC50 [2]: > 100 µM
Cathepsin L inhibition (in words) [3]: did not prove to be an inhibitor
IC50 ([3]; read-out: Cathepsin L IC50, pH 5.5, Z-Phe-Arg-AMC substrate): > 500 µM
MIC [4]: 128 µg/mL (≈ 88.6 µM)
Activity against HCoV-229E CPE (in words) [5]: only modest activity
MIC [6]: 128 µg/mL (≈ 88.6 µM)
MIC ([7]; read-out: Average MIC value, E. faecalis VAN^R,TEI^R/VanA, 1 strain): 0.125 µg/mL (≈ 0.0866 µM)
MIC ([7]; read-out: Average MIC value, E. faecalis VAN^S, TEI^S, 2 strains): 0.125 µg/mL (≈ 0.0866 µM)
MIC ([7]; read-out: MIC value, E.faecalis JH2-2): 0.125 µg/mL (≈ 0.0866 µM)
MIC ([7]; read-out: MIC value, E.faecalis OG1RF): 0.125 µg/mL (≈ 0.0866 µM)
MIC ([7]; read-out: MIC value, E.faecalis V583, VAN,TEI/VanA): 0.125 µg/mL (≈ 0.0866 µM)
MIC ([8]; S. haemolyticus mecA, 6 strains, read-out: Average MIC value): 0.27 µg/mL (≈ 0.187 µM)
MIC ([8]; S.haemolyticus DALB_R1, mecA, read-out: MIC value): 0.5 µg/mL (≈ 0.346 µM)
MIC ([8]; S.haemolyticus DALB_R2, mecA, read-out: MIC value): 0.25 µg/mL (≈ 0.173 µM)
MIC ([8]; S.haemolyticus DALB_R3, mecA, read-out: MIC value): 0.25 µg/mL (≈ 0.173 µM)
MIC ([8]; S.haemolyticus DALB_R4, mecA, read-out: MIC value): 0.125 µg/mL (≈ 0.0866 µM)
MIC ([8]; S.haemolyticus DALB_R5, mecA, read-out: MIC value): 0.25 µg/mL (≈ 0.173 µM)
MIC ([8]; S.haemolyticus ORI_R1, mecA, read-out: MIC value): 0.25 µg/mL (≈ 0.173 µM)
MIC ([9]; ATCC 29213 / MSSA, read-out: MIC value, S. aureus ATCC29213, MSSA): 0.25 µg/mL (≈ 0.173 µM)
MIC ([9]; MRSA / USA300, read-out: MIC value, S. aureus USA300, CA-MRSA): 0.125 µg/mL (≈ 0.0866 µM)
MIC ([9]; MRSA, read-out: Average MIC value, S. aureus CA-MRSA, 1 strain): 0.125 µg/mL (≈ 0.0866 µM)
MIC ([9]; MRSA, read-out: Average MIC value, S. aureus MRSA, 7 strains): 0.125 µg/mL (≈ 0.0866 µM)
MIC ([9]; MRSA, read-out: MIC value, S. aureus 73OL, MRSA): 0.125 µg/mL (≈ 0.0866 µM)
MIC ([9]; MRSA, read-out: MIC value, S. aureus 214OL, MRSA): 0.125 µg/mL (≈ 0.0866 µM)
MIC ([9]; MRSA, read-out: MIC value, S. aureus 1041OL, MRSA): 0.125 µg/mL (≈ 0.0866 µM)
MIC ([9]; MRSA, read-out: MIC value, S. aureus A6918, MRSA): 0.125 µg/mL (≈ 0.0866 µM)
MIC ([9]; MRSA, read-out: MIC value, S. aureus A6919, MRSA): 0.125 µg/mL (≈ 0.0866 µM)
MIC ([9]; MRSA, read-out: MIC value, S. aureus Mu50, MRSA): 0.125 µg/mL (≈ 0.0866 µM)
MIC ([9]; MRSA, read-out: MIC value, S. aureus N315, MRSA): 0.125 µg/mL (≈ 0.0866 µM)
MIC ([9]; MSSA / NEWMAN, read-out: MIC value, S. aureus Newman, MSSA): 0.25 µg/mL (≈ 0.173 µM)
MIC ([9]; MSSA, read-out: Average MIC value, S. aureus MSSA, 4 strains): 0.188 µg/mL (≈ 0.13 µM)
MIC ([9]; MSSA, read-out: MIC value, S. aureus MSSA476, MSSA): 0.125 µg/mL (≈ 0.0866 µM)
MIC ([9]; MSSA, read-out: MIC value, S. aureus SA564, MSSA): 0.125 µg/mL (≈ 0.0866 µM)
MIC ([10]; read-out: MIC value, S.pyogenes H232): 0.125 µg/mL (≈ 0.0866 µM)
MIC ([10]; read-out: MIC value, S.pyogenes H550): 0.125 µg/mL (≈ 0.0866 µM)
MIC ([10]; read-out: MIC value, S.pyogenes H578): 0.125 µg/mL (≈ 0.0866 µM)
Inhibition of pseudovirus entry in Vero cells (in words) [11]: moderately active
MIC ([12]; read-out: Average MIC value, S. epidermidis mecA, 6 strains): 0.1 µg/mL (≈ 0.0692 µM)
MIC ([12]; read-out: MIC value, S.epidermidis ORI_R1, mecA): 0.0625 µg/mL (≈ 0.0433 µM)
MIC ([12]; read-out: MIC value, S.epidermidis ORI_R2, mecA): 0.125 µg/mL (≈ 0.0866 µM)
MIC ([12]; read-out: MIC value, S.epidermidis ORI_R3, mecA): 0.0625 µg/mL (≈ 0.0433 µM)
MIC ([12]; read-out: MIC value, S.epidermidis ORI_R4, mecA): 0.0625 µg/mL (≈ 0.0433 µM)
MIC ([12]; read-out: MIC value, S.epidermidis TEI_R1, mecA): 0.0625 µg/mL (≈ 0.0433 µM)
MIC ([12]; read-out: MIC value, S.epidermidis TEI_R2, mecA): 0.25 µg/mL (≈ 0.173 µM)
MIC ([13]; read-out: Average MIC value, E. faecium VAN^R,TEI^R/VanA, 8 strains): 0.156 µg/mL (≈ 0.108 µM)
MIC ([13]; read-out: Average MIC value, E. faecium VAN^S, TEI^S, 1 strain): 0.0625 µg/mL (≈ 0.0433 µM)
MIC ([13]; read-out: MIC value, E.faecium E335, VAN,TEI,LNZ/VanA): 0.125 µg/mL (≈ 0.0866 µM)
MIC ([13]; read-out: MIC value, E.faecium E355, VAN,TEI,LNZ/VanA): 0.125 µg/mL (≈ 0.0866 µM)
MIC ([13]; read-out: MIC value, E.faecium E832, VAN,TEI,LNZ/VanA): 0.125 µg/mL (≈ 0.0866 µM)
MIC ([13]; read-out: MIC value, E.faecium E854, VAN,TEI,LNZ/VanA): 0.125 µg/mL (≈ 0.0866 µM)
MIC ([13]; read-out: MIC value, E.faecium E859, VAN,TEI,LNZ/VanA): 0.125 µg/mL (≈ 0.0866 µM)
MIC ([13]; read-out: MIC value, E.faecium E1114, VAN,TEI,LNZ/VanA): 0.5 µg/mL (≈ 0.346 µM)
MIC ([13]; read-out: MIC value, E.faecium E1131, VAN,TEI,LNZ/VanA): 0.0625 µg/mL (≈ 0.0433 µM)
MIC ([13]; read-out: MIC value, E.faecium E1132, VAN,TEI,LNZ/VanA): 0.0625 µg/mL (≈ 0.0433 µM)
MIC ([13]; read-out: MIC value, E.faecium TX0016): 0.0625 µg/mL (≈ 0.0433 µM)
Activity against E. faecium strains expressing the VanA resistance phenotype (in words) ([13]; VanA phenotype): strong activity
Outcompeting fluorescent vancomycin from S. aureus (in words) [14]: highly effective at outcompeting fluorescent vancomycin
CC50 [15]: > 100 µM
CC50 [16]: > 100 µM
Outcompeting fluorescent teicoplanin from S. aureus (in words) [17]: the most active competitor
MIC [18]: 256 µg/mL (≈ 177 µM)
